# Tested on: HCV genotype 1b replicon
# Assay: HCV replicon assay, cell ELISA with antibody to replicon-encoded NS3/4A (genotype 1b replicon)
# Type: cell-based, hepatitis C virus
# Conditions: Hepatitis C virus, 96 h, read-out: 1b IC50(nM), HCV genotype 1b replicon; 96 hours incubation; NS3/4A cell ELISA
# How it was run: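 An ELISA on lysed cells, using an antibody against NS3/4A protease, served as the proxy for replicon RNA. Cells had first been exposed for 96 h to serially diluted compound in G418-free conditions. Percent of DMSO control was fitted with a four-parameter function to give IC50.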
row,SMILES,IC50 [nM]
1,CNC(=O)c1c(-c2ccc(F)cc2)oc2cc(N(C)S(C)(=O)=O)c(-c3ccc(-c4cnco4)c(-c4nc5c(F)cccc5o4)c3)cc12 [Example 479],1.95
2,CNC(=O)c1c(-c2ccc(F)cc2)oc2cc(N(C)S(C)(=O)=O)c(-c3ccc(OCC(F)F)c(-c4cc5ccccc5[nH]4)c3)cc12 [Example 622],647
3,CNC(=O)c1c(-c2ccc(F)cc2)oc2cc(N(CC(C)(CO)CF)S(C)(=O)=O)c(-c3ccc(OC)c(-c4nc5c(F)cccc5o4)c3)cc12 (stereo not shown) [Example 813],107
4,CNC(=O)c1c(-c2ccc(F)cc2)oc2cc(N(CC(C)(C)O)S(C)(=O)=O)c(-c3ccc(OC)c(-c4nc5c(F)cccc5o4)c3)cc12 [Example 779],8.28
5,CNC(=O)c1c(-c2ccc(F)cc2)oc2cc(N(C[C@@H](C)NC(=O)[C@@H](NC(=O)OC)C(C)C)S(C)(=O)=O)c(-c3cccc(-c4nc5ncccc5o4)c3)cc12 [Example 836],82
6,CNC(=O)c1c(-c2ccc(F)cc2)oc2cc(N(CC3CCOC(c4ccccc4)O3)S(C)(=O)=O)c(-c3ccc(OC)c(-c4nc5c(F)cccc5o4)c3)cc12 (stereo not shown) [Example 769],80.7
7,CNC(=O)c1c(-c2ccc(F)cc2)oc2cc(N(C)S(C)(=O)=O)c(-c3ccc(C(=O)O)c(-c4nc5c(F)cccc5o4)c3)cc12 [Example 651],155
8,CNC(=O)c1c(-c2ccc(F)cc2)oc2cc(N(C)S(C)(=O)=O)c(-c3cnc(OC)c(-c4nc5c(F)cccc5o4)c3)cc12 [Example 507],0.68

# Same assay, conditions: Hepatitis C virus, 96 h, read-out: Replicon 1b IC50 (nM), HCV genotype 1b replicon cells, 96 hours incubation, NS3/4A ELISA readout
row,SMILES,IC50 [nM]
1,CNC(=O)c1c(-c2ccc(F)cc2)oc2cc(N(C)S(C)(=O)=O)c(-c3cc(C#N)cc(-c4nc5cncnc5[nH]4)c3)cc12 [Example 348],72.7
2,CNC(=O)c1c(-c2ccc(F)cc2)oc2cc(N(C)S(C)(=O)=O)c(-c3ccc(OC)c(-c4nc5cccc(C)c5o4)c3)cc12 [Example 192],1.9
3,CNC(=O)c1c(-c2ccc(F)cc2)oc2cc(N(C)S(C)(=O)=O)c(-c3cccc(-c4nc5cc(F)ccc5s4)c3)cc12 [Example 292],5.9
4,CNC(=O)c1c(-c2ccc(F)cc2)oc2cc(N(C)S(C)(=O)=O)c(-c3cccc(-c4cc5cccnc5[nH]4)c3)cc12 [Compound 369],2.7
5,"CONC(=O)c1c(-c2ccc(F)cc2)oc2cc(N(C)S(C)(=O)=O)c(-c3ccccc3F)cc12 [Example 90, 5(2-fluorophenyl)-2-(4-fluorophenyl)-N-methoxy-6-[methyl(methylsulfonyl)amino]-1-benzofuran-3-carboxamide]",197
6,"CNC(=O)c1c(-c2ccc(F)cc2)oc2cc(N(CCNCc3ccccc3)S(C)(=O)=O)c(-c3ccccc3)cc12 [Example 123, 6-{[2-(benzylamino)ethyl](methylsulfonyl)amino}-2-(4-fluorophenyl)-N-methyl-5-phenyl-1-benzofuran-3-carboxamide]",111
7,CCS(=O)(=O)N(C)c1cc2oc(-c3ccc(F)cc3)c(C(=O)NC)c2cc1-c1cccc(-c2nc3ncccc3o2)c1 [Compound 401],1.8
8,CNC(=O)c1c(-c2ccc(F)cc2)oc2cc(N(C)S(C)(=O)=O)c(-c3cccc(-c4nc5cc(NS(=O)(=O)c6ccccc6)ccc5o4)c3)cc12 [Example 286],5.8
9,"CCCCN(c1cc2oc(-c3ccc(F)cc3)c(C(=O)NC)c2cc1-c1ccccc1)S(C)(=O)=O [Example 17, 6-[butyl (methylsulfonyl)amino]-2-(4-fluorophenyl)-N-methyl-5-phenyl-1-benzofuran-3-carboxamide]",48
10,"CCC(CC)CN(c1cc2oc(-c3ccc(F)cc3)c(C(=O)NC)c2cc1-c1ccccc1)S(C)(=O)=O [Example 23, 6-[(2-ethylbutyl) (methylsulfonyl)amino]-2-(4-fluorophenyl)-N-methyl-5-phenyl-1-benzofuran-3-carboxamide]",374
11,CNC(=O)c1c(-c2ccc(F)cc2)oc2cc(N(C)S(C)(=O)=O)c(-c3cccc(-c4nc5nccnc5o4)c3)cc12 [Example 240],1.9
